{"source": "patent US12648979B2", "about": "“Compositions comprising sulforaphane or a sulforaphane precursor and Moringa plant components” (Nutramax Laboratories, Inc., priority 2021, dated 2026)", "key": {"[1]": {"test_system": "Epstein-Barr virus-early antigen", "settings": "in vitro; cited from earlier work"}, "[2]": {"test_system": "NAD(P)H:quinone oxidoreductase 1 (NQO1) gene expression", "assay": "NQO1 gene expression in RAW 264.7 macrophage cell line, quantitative RT-PCR (Examples 6, 7, 11)", "assay_type": "cell-based", "settings": "0.5 μM SFN; 24 hours", "procedure": "In the study, the macrophage cell line RAW 264.7 was treated with dimethyl sulfoxide (DMSO) (vehicle control), sulforaphane (SFN), a maitake mushroom extract having about 20% beta-glucan content (Maitake), or the combination of sulforaphane and the maitake mushroom extract, for 24 hours. In particular, the cells were treated with one of the following: (i) DMSO (vehicle control), (ii) 0.5 μM SFN, (iii) 250 μg/mL Maitake, (iv) 500 μg/mL Maitake, (v) 750 μg/mL Maitake, (vi) 0.5 μM SFN and 250 μg/mL Maitake, (vii) 0.5 μM SFN and 500 μg/mL Maitake, and (viii) 0.5 μM SFN and 750 μg/mL Maitake. The gene expression of NQO-1 was analyzed via quantitative RT-PCR. The results, which are depicted in FIG. 2, show the following:\nIn the study, the macrophage cell line RAW 264.7 was treated with DMSO (vehicle control), sulforaphane (SFN), a shiitake mushroom extract having at least 20% alpha-glucan content (Shiitake), or the combination of sulforaphane and the shiitake mushroom extract, for 24 hours. […] The gene expression of NQO1 was analyzed via quantitative RT-PCR. […]\nIn the study, the macrophage cell line RAW 264.7 was treated with sulforaphane (SFN), Moringa plant components (MOR), or a combination of SFN and MOR, for 24 hours. […] The gene expression of NQO1 was analyzed via quantitative RT-PCR. […]"}, "[3]": {"test_system": "NAD(P)H:quinone oxidoreductase (NQO1)", "settings": "oral administration; cited from earlier work"}, "heme oxygenase-1 (HO-1)": {"test_system": "heme oxygenase-1 (HO-1)", "settings": "oral administration; cited from earlier work"}, "mammary tumors": {"test_system": "mammary tumors", "settings": "rat, in vivo; cited from earlier work"}, "[4]": {"test_system": "broccoli sprout-derived myrosinase", "assay": "Consumption of glucoraphanin by myrosinase as a function of ascorbic acid concentration (Example 3)", "assay_type": "biochemical", "settings": "600 μmoles/Liter ascorbic acid", "procedure": "A […] Interaction Chromatographic (HILIC) method was developed, comprising the following conditions: • Column: Waters BEH Amide, 1.7-μm particle size; 2.1 mm×100 mm; • Mobile Phase: 20% 10 mM Ammonium Acetate, pH 5.0; 80% acetonitrile; • Separation mode: isocratic; • Column Temperature: 70° C.; • Flow Rate: 0.7 mL/min.\nAbout 250 mg of broccoli seed extract containing about 12% (w/w) glucoraphanin were subjected to hydrolysis by a fixed concentration of broccoli sprout-derived myrosinase in the presence of variable concentration of ascorbic acid, ranging from 0 to 600 μmoles/Liter. The reaction mixtures were thermostated at 38° C.; aliquots were withdrawn every 15 minutes for 60 minutes, and concentration of glucoraphanin determined chromatographically. The rate of glucoraphanin consumption was interpreted as the rate its conversion to sulforaphane. Graphical representation of glucoraphanin content reduction as a function of increasing ascorbic acid concentration results in a series of linear plots; the slopes of the linear regression lines reflect the rate of glucoraphanin consumption, in pmoles/minute. It is apparent that in the presence of 600 μmoles/Liter concentration of ascorbic acid, the reaction rate increased 13-fold relative to that which proceeded in the absence of modulatory effects of ascorbic acid."}, "myrosinase [5]": {"test_system": "myrosinase", "assay": "Equimolar conversion of glucoraphanin to sulforaphane by myrosinase, HPLC (Example 4)", "assay_type": "biochemical, broccoli", "settings": "PART 2, broccoli seed extract 250 mg", "procedure": "A two-part experiment was conducted to further elucidate the role of ascorbic acid in modulating myrosinase activity. All solutions were prepared in 20 mM Tris-buffered saline, at pH 7.5, previously identified as an optimal for myrosinase activity; each sample tube had 100 mg of freeze-dried broccoli powder accurately weighed in as a source of myrosinase. Experiment was conducted at 38° C. for 2 hours, with sample aliquots removed in 30-minute increments, and both glucoraphanin and sulforaphane content assessed by HPLC. […] A control sample contained no ascorbic acid, and the enzymatic conversion proceeded unassisted by a co-factor. PART 1. In the presence of the fixed concentration of ascorbic acid, 1 mmol/Liter, an increasing amount of broccoli seed extract (about 12% glucoraphanin, w/w) was added, ranging from 250 mg to 500 mg. PART 2. While keeping the amount of broccoli seed extract fixed at 250 mg, the concentration of ascorbic acid was varied from 0.4 mmol/Liter to 3.8 mmol/Liter."}, "myrosinase [6]": {"test_system": "myrosinase", "assay": "Conversion of glucoraphanin to sulforaphane in Simulated Intestinal Fluid (Example 5)", "assay_type": "biochemical, broccoli", "settings": "38° C., ascorbic acid 0.25 to 1.00 mmol/Liter, FIG. 1", "procedure": "Simulated Intestinal Fluid (SIF) powder, a commercially supplied concentrate closely approximating the human intestinal content in terms of composition, pH and ionic strength, was used. The experiment utilized a USP Dissolution Apparatus 2 (paddles), where into six dissolution vessels 500 mL of Simulated Intestinal Fluid was dispensed, along with 150 mg of freeze-dried broccoli sprout powder as a source of myrosinase. […] Aliquots were withdrawn every 15 minutes, and assayed for sulforaphane."}}}
{"smiles": "CCCCCCCCC=CCCCCCCCC(=O)OCC1OC(OC2CCC3(C)C(=CCC4C3CCC3(C)C(C(C)CCC(CC)C(C)C)CCC43)C2)C(O)C(O)C1O", "note": "[3-O-(6′-O-oleoyl-β-D-glucopyranosyl)-β-sitosterol]", "values": [{"measurement": "inhibitory effects on Epstein-Barr virus-early antigen", "setting": "[1]", "result": "significant inhibitory effects"}]}
{"smiles": "C[C@@H]1O[C@@H](Oc2ccc(CN=C=S)cc2)[C@H](O)[C@H](O)[C@H]1O", "note": "[4(α-L-rhamnosyloxy)-benzyl isothiocyanate]", "values": [{"measurement": "inhibitory effects on Epstein-Barr virus-early antigen", "setting": "[1]", "result": "significant inhibitory effects"}]}
{"smiles": "CCOC(=O)NCc1ccc(O[C@@H]2O[C@@H](C)[C@H](O)[C@@H](O)[C@H]2O)cc1", "note": "[O-Ethyl-4-(α-L-rhamnosyloxy)benzyl carbamate]", "values": [{"measurement": "inhibitory effects on Epstein-Barr virus-early antigen", "setting": "[1]", "result": "significant inhibitory effects"}]}
{"smiles": "C[S+]([O-])CCCCN=C=S", "note": "(centres unmarked) [SFN, 1-isothiocyanato-4-methylsulfinylbutane]", "values": [{"measurement": "Fold increase in NQO-1 gene expression", "setting": "[2]", "result": 12.96}, {"measurement": "increase in NQO1 enzymatic activity in the mammary epithelium", "setting": "[3]", "result": 3, "unit": "fold"}, {"measurement": "elevated immunostaining of HO-1 in the mammary epithelium", "setting": "heme oxygenase-1 (HO-1)", "result": 4, "unit": "fold"}, {"measurement": "blocking the formation of mammary tumors", "setting": "mammary tumors", "result": "effective in blocking the formation of mammary tumors"}]}
{"smiles": "O=C1O[C@H]([C@@H](O)CO)C(O)=C1O", "note": "[ascorbic acid]", "values": [{"measurement": "increase of reaction rate relative to absence of ascorbic acid", "setting": "[4]", "result": 13, "unit": "fold"}, {"measurement": "ascorbic acid concentration up to which myrosinase-promoted conversion increases linearly, then levels off", "setting": "myrosinase [5]", "result": "about 2 mmol/L"}, {"measurement": "yield of sulforaphane versus ascorbic acid concentration", "setting": "myrosinase [6]", "result": "direct correlation between larger yield of sulforaphane and higher concentrations of ascorbic acid"}]}
{"smiles": "CCOC(=S)NCc1ccc(OC2OC(C)C(O)C(O)C2O)cc1", "note": "(centres unmarked) [niazimicin]", "values": [{"measurement": "inhibitory effects on Epstein-Barr virus-early antigen", "setting": "[1]", "result": "significant inhibitory effects"}]}
